Laboratory results: patent US20260176295A1, “PHOSPHONATE CONJUGATES AND USES THEREOF” (The Translational Genomics Research Institute, priority 2019, published 2026)
Like-named read-outs stand apart in the source and are kept apart here. One block for each molecule: values may come before it.

Experiments:
RON/MST1R = RON/MST1R (Homo sapiens, UniProt Q04912); assay: Ron tyrosine kinase inhibition assay (10 dose IC50 mode, 10 μM ATP); format: biochemical; conditions: read-out: Compound IC50
Protocol: Compounds were tested in 10 dose IC50 mode with 3-fold serial dilution starting at 100 μM. […] Reactions were carried out at 10 μM ATP. Data pages include raw data, % Enzyme activity (relative to DMSO controls) and curve fits. Curve fits were performed where the enzyme activities at the highest concentration of compounds were less than 65%.
IC50 values may be determined using GraphPad Prism 5 software. The data may be entered as an X-Y plot into the software as percent inhibition for each concentration of the drug. The concentration values of the drug may be log transformed and the nonlinear regression may be carried out using the “sigmoidal dose-response (variable slope)” option within the GraphPad software to model the data and calculate IC50 values. The IC50 values reported are the concentration of drug at which 50% inhibition was reached.

RON Kinase Enzyme = target: T1, RON Kinase Enzyme (Homo sapiens, UniProt Q04912); assay: Kinase ADP-Glo inhibition assay; format: biochemical; conditions: 25 μM ATP
T1 construct: purchased Promega V3921
Protocol: • Assay Buffer • 40 mM Tris-HCl pH7.5, 20 mM MgCl2, 0.1 mg/mL BSA • RON Kinase Enzyme System (Promega #: V3921) • Axltide Substrate • RON Kinase Enzyme • ADP-Glo™ Assay (Promega #: V9101) • ATP, 10 mM • ADP-Glo™ Reagent • Kinase Detection Reagent • 384-well white assay plates
A ten point serial dilution of compound was prepared at 5× concentration in assay buffer with the final assay concentrations starting at 30 μM, 10 μM, 3 μM, 1 μM . . . 0 μM. Enzyme, substrate, and ATP were used at 25 ng, 200 ng and 25 μM, respectively. The assay plate was set up by mixing the components in a total reaction volume of 10 μL per well. The plate was centrifuged gently for 10 seconds and incubated at room temperature (RT) for 60 minutes in the dark. The ADP-Glo Reagent and kinase detection reagent were added and incubated as recommended. The reaction was quantified by measuring luminescence on the Perkin Elmer Envision plate reader. Data was analyzed using Graphpad Prism 7 software.

[1] = Pharmacokinetic (PK) study of phosphate conjugates of BMS-777607 in male swiss albino mice; format: in vivo; conditions: 2 mg/kg single intravenous bolus; for AUC(0-inf) / AUC(0-t) / C0 / clearance / half-life / Vd / Kp: mouse; for Vd: read-out: VSS; for Kp: read-out: bone to plasma ratios (AUClast)
Protocol: For extended time points (>24 hrs), BID dosing was done 8 hr apart.
The study was performed using sparse design to obtain composite profile (n=3/time point) as summarized in the table1. Blood and whole bone with marrow were collected at predetermined time points. At each time point, about 120 μL of blood was collected by retro-orbital sinus puncture into a labeled microfuge tube containing 200 mM K2EDTA solution (20 μL per mL of blood). The blood samples were processed within 30 minutes to obtain the plasma samples. At respective time points, blood samples were collected and animals were euthanized to harvest whole femur bone (bone with marrow). All plasma and bone with marrow samples were stored at −80° C.
The plasma and bone with bone marrow homogenate samples were analyzed using a fit-for purpose LC-MS/MS method with a lower limit of quantification (LLOQ) of 1.00 ng/ml (plasma) and 11.0 ng/g (bone). In some instances, bone marrow was separated from bone and analyzed independently. The pharmacokinetic parameters of the drugs were calculated using the non-compartmental analysis tool of validated Phoenix® WinNonlin® software (version 8.0).

[2] = male, Swiss Albino, in vivo, iv, 2 mg/kg, Bone with Bone marrow
[3] = male, Swiss Albino, in vivo, iv, 2 mg/kg, Plasma
[4] = in vivo, Plasma, male Swiss Albino mice

T1 sequence (Q04912 25-1400): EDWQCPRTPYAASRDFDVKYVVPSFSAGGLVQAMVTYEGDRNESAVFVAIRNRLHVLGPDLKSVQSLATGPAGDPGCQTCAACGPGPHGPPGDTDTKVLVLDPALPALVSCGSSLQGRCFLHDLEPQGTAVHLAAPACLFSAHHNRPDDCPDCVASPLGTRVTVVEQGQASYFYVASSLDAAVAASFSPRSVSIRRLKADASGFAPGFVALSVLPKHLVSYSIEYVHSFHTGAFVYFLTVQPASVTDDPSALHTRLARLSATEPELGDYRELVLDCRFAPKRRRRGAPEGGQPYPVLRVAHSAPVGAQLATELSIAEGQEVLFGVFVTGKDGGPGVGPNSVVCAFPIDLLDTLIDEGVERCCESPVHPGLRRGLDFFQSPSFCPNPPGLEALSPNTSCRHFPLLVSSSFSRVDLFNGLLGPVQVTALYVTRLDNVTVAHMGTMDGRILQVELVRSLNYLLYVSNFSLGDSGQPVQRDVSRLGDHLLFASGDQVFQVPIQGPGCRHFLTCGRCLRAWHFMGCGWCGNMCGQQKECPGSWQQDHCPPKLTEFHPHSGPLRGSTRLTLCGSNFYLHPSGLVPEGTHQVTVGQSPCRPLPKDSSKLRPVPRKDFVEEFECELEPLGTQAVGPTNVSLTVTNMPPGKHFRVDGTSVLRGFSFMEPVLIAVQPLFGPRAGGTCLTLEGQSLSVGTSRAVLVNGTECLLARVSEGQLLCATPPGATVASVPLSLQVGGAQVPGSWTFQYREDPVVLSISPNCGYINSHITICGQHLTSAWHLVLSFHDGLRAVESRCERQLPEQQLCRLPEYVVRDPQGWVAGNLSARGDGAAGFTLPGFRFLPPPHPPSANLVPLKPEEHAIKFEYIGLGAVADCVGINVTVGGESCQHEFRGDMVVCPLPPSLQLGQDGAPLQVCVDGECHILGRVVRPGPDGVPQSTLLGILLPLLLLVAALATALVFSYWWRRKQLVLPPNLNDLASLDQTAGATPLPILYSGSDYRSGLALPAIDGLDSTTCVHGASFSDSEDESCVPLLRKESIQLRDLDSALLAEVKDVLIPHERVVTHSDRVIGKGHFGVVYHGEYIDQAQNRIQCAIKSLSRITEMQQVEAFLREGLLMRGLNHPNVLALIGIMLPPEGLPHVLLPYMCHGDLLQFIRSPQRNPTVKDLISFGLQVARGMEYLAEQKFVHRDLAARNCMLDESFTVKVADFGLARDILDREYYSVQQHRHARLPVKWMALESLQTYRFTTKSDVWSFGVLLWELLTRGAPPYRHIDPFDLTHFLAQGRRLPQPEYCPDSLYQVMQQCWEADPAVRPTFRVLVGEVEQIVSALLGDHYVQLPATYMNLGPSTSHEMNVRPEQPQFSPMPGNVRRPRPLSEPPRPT
Chain of RON/MST1R (Q04912 25-1400): as above

SMILES: Nc1nccc(Oc2ccc(NC(=O)c3c(OCP(=O)([O-])[O-])ccn(-c4ccc(F)cc4)c3=O)cc2F)c1Cl.[Na+].[Na+] [Compound 10, (((3-((4-((2-amino-3-chloropyridin-4-yl)oxy)-3-fluorophenyl)carbamoyl)-1-(4-fluorophenyl)-2-oxo-1,2-dihydropyridin-4-yl)oxy)methyl)phosphonate]
- IC50 (RON Kinase Enzyme): 547 nM
- accumulation in bone [1]: accumulated in the bone
- AUCinf ([1]; Bone with Bone marrow): 2920 h*ng · h/mL
- AUC(0-t) [1, 2]: 2420 ng·h/mL
- clearance [1, 2]: 11.4 mL/min/kg
- half-life [1, 2]: 1.61 h
- Vd [1, 2]: 1.5 L/kg
- AUC(0-t) [1, 3]: 9830 ng·h/mL
- clearance [1, 3]: 3.36 mL/min/kg
- half-life [1, 3]: 0.987 h
- Vd [1, 3]: 0.179 L/kg
- Kp ([1]; in vivo): 0.25
- AUC(0-inf) ([1]; in vivo, Plasma): 9910 ng·h/mL
- C0 ([1]; in vivo, Plasma): 16000 ng/mL

SMILES: CCOc1ccn(-c2ccc(F)cc2)c(=O)c1C(=O)Nc1ccc(Oc2ccnc(NC(P(=O)(OCC)OCC)P(=O)(OCC)OCC)c2Cl)c(F)c1 [Compound 9, tetraethyl (((3-chloro-4-(4-(4-ethoxy-1-(4-fluorophenyl)-2-oxo-1,2-dihydropyridine-3-carboxamido)-2-fluorophenoxy)pyridin-2-yl)amino)methylene)bis(phosphonate)]
- IC50 (RON Kinase Enzyme): 33800 nM

SMILES: CCOc1ccn(-c2ccc(F)c(OP(=O)(O)O)c2)c(=O)c1C(=O)Nc1ccc(Oc2ccnc(N)c2Cl)c(F)c1 [Compound 12, sodium 5-(3-((4-((2-amino-3-chloropyridin-4-yl)oxy)-3-fluorophenyl)carbamoyl)-4-ethoxy-2-oxopyridin-1(2H)-yl)-2-fluorophenyl phosphate]
- IC50 (RON Kinase Enzyme): 58 nM
- AUC(0-inf) [1, 4]: 963 ng·h/mL
- AUC(0-t) [1, 4]: 959 ng·h/mL
- C0 [1, 4]: 4680 ng/mL
- clearance [1, 4]: 34.6 mL/min/kg
- half-life [1, 4]: 1.17 h
- Vd [1, 4]: 0.879 L/kg

Now from value to molecule:

- IC50 (RON/MST1R): 13400 nM
- IC50 (RON Kinase Enzyme): 13400 nM
SMILES: CCOc1ccn(-c2ccc(F)cc2)c(=O)c1C(=O)Nc1ccc(Oc2ccnc(NC(P(=O)(O)O)P(=O)(O)O)c2Cl)c(F)c1 [Compound 1, (((3-chloro-4-(4-(4-ethoxy-1-(4-fluorophenyl)-2-oxo-1,2-dihydropyridine-3-carboxamido)-2-fluorophenoxy)pyridin-2-yl)amino)methylene)diphosphonic acid]

- IC50 (RON Kinase Enzyme): 1270 nM
SMILES: CCOc1ccn(-c2ccc(F)c(OCCC(P(=O)(O)O)P(=O)(O)O)c2)c(=O)c1C(=O)Nc1ccc(Oc2ccnc(N)c2Cl)c(F)c1 [Compound 11, sodium (3-(5-(3-((4-((2-amino-3-chloropyridin-4-yl)oxy)-3-fluorophenyl)carbamoyl)-4-ethoxy-2-oxopyridin-1(2H)-yl)-2-fluorophenoxy)propane-1,1-diyl)bis(phosphonate)]

- IC50 (RON/MST1R): 17.2 nM
- IC50 (RON Kinase Enzyme): 18 nM
- AUC(0-inf) ([1]; Plasma): 1690 ng·h/mL
- AUC(0-t) ([1]; Plasma): 1690 ng·h/mL
- C0 ([1]; Plasma): 3610 ng/mL
- clearance ([1]; Plasma): 19.7 mL/min/kg
- half-life ([1]; Plasma): 3.42 h
- Vd ([1]; Plasma): 1.42 L/kg
- AUC(0-t) ([1]; bone (without marrow), Bone only): 296 ng·h/mL
- Kp ([1]; bone / plasma): 0.17
SMILES: CCOc1ccn(-c2ccc(F)cc2)c(=O)c1C(=O)Nc1ccc(Oc2ccnc(N)c2Cl)c(F)c1 [BMS-777607, N-(4-((2-amino-3-chloropyridin-4-yl)oxy)-3-fluorophenyl)-4-ethoxy-1-(4-fluorophenyl)-2-oxo-1,2-dihydropyridine-3-carboxamide, reference compound]

- IC50 (RON Kinase Enzyme): 2430 nM
SMILES: CCOc1ccn(-c2ccc(F)c(COP(=O)(O)O)c2)c(=O)c1C(=O)Nc1ccc(Oc2ccnc(N)c2Cl)c(F)c1 [Compound 13, sodium 5-(3-((4-((2-amino-3-chloropyridin-4-yl)oxy)-3-fluorophenyl)carbamoyl)-4-ethoxy-2-oxopyridin-1(2H)-yl)-2-fluorobenzyl phosphate]
